Assay results published in patent publication US20130012466A1 (priority 2006, published 2013).
Read-outs that look alike come from different tables or passages of the source.

Legend:
MCF7 = experiment: Cytotoxicity assay (cell titer-glo and calcein AM), MCF7
[1] = test system: mouse mammary normal epithelial control cell line; experiment: Cytotoxicity assay, normal control cell line
Du145 = experiment: Cytotoxicity assay (cell titer-glo and calcein AM), Du145; conditions: Du145, % error in parentheses
Hep3B = experiment: Cytotoxicity assay (cell titer-glo and calcein AM), Hep3B; conditions: Hep 3B, % error in parentheses
A549 = experiment: Cytotoxicity assay (cell titer-glo and calcein AM), A549; conditions: A549, % error in parentheses
ADR-RES = experiment: Cytotoxicity assay (cell titer-glo and calcein AM), ADR-RES; conditions: NCI/ADR RES, % error in parentheses
SK-OV-3 = experiment: Cytotoxicity assay (cell titer-glo and calcein AM), SK-OV-3; conditions: SK-OV-3, % error in parentheses
NCI-H460 = experiment: Cytotoxicity assay (cell titer-glo and calcein AM), NCI-H460; conditions: NCI-H460, % error in parentheses
SF-268 = experiment: Cytotoxicity assay (cell titer-glo and calcein AM), SF-268; conditions: SF-268, % error in parentheses
[2] = read-out: Cytotoxicity IC50, MCF7, CTG, CTG (cell titer-glo) readout, % error in parentheses
[3] = read-out: Cytotoxicity IC50, MCF7, calcein, calcein AM readout, % error in parentheses
[4] = read-out: Cytotoxicity IC50, NmuMG, CTG, CTG (cell titer-glo) readout, % error in parentheses
[5] = read-out: Cytotoxicity IC50, NmuMG, calcein, calcein AM readout, % error in parentheses
[6] = read-out: Cytotoxicity IC50, Du145, CTG, CTG (cell titer-glo) readout
[7] = read-out: Cytotoxicity IC50, Du145, calcein, calcein AM readout
[8] = read-out: Cytotoxicity IC50, Hep 3B, CTG, CTG (cell titer-glo) readout
[9] = read-out: Cytotoxicity IC50, Hep 3B, calcein, calcein AM readout
[10] = read-out: Cytotoxicity IC50, A549, CTG, CTG (cell titer-glo) readout
[11] = read-out: Cytotoxicity IC50, A549, calcein, calcein AM readout
[12] = read-out: Cytotoxicity IC50, NCI/ADR RES, CTG, CTG (cell titer-glo) readout
[13] = read-out: Cytotoxicity IC50, NCI/ADR RES, calcein, calcein AM readout
[14] = read-out: Cytotoxicity IC50, SK-OV-3, CTG, CTG (cell titer-glo) readout
[15] = read-out: Cytotoxicity IC50, SK-OV-3, calcein, calcein AM readout
[16] = read-out: Cytotoxicity IC50, NCI-H460, CTG, CTG (cell titer-glo) readout
[17] = read-out: Cytotoxicity IC50, NCI-H460, calcein, calcein AM readout
[18] = read-out: Cytotoxicity IC50, SF-268, CTG, CTG (cell titer-glo) readout
[19] = read-out: Cytotoxicity IC50, SF-268, calcein, calcein AM readout

| SMILES | IC50 (MCF7; [2]) [µM] | IC50 (MCF7; [3]) [µM] | IC50 [1, 4] [µM] | IC50 [1, 5] [µM] | IC50 (Du145; [6]) [µM] | IC50 (Du145; [7]) [µM] | IC50 (Hep3B; [8]) [µM] | IC50 (Hep3B; [9]) [µM] | IC50 (A549; [10]) [µM] | IC50 (A549; [11]) [µM] | IC50 (ADR-RES; [12]) [µM] | IC50 (ADR-RES; [13]) [µM] | IC50 (SK-OV-3; [14]) [µM] | IC50 (SK-OV-3; [15]) [µM] | IC50 (NCI-H460; [16]) [µM] | IC50 (NCI-H460; [17]) [µM] | IC50 (SF-268; [18]) [µM] | IC50 (SF-268; [19]) [µM] |
| --- | --- | --- | --- | --- | --- | --- | --- | --- | --- | --- | --- | --- | --- | --- | --- | --- | --- | --- |
| COc1cc2c(c(OC)c1OC)-c1ccc(OC)c(=O)cc1C(NC(=O)CN(OC)C1OC(C)C(O)C(O)C1O)CC2 [Col14, L-fucoside] | 4.95 | > 10 | > 10 | > 10 | > 10 | > 10 | > 10 | > 10 | > 10 | > 10 | > 10 | > 10 | > 10 | > 10 | 9.03 | > 10 | 5.28 | 9.89 |
| COc1cc2c(c(OC)c1OC)-c1ccc(OC)c(=O)cc1[C@@H](NC(=O)CN(OC)[C@@H]1O[C@H](C(=O)O)[C@@H](O)[C@H](O)[C@H]1O)CC2 [Col15, D-glucuronoside] | 0.99 | 4.41 | > 5 | > 5 | 1.27 | 1.64 | 3.28 | 3.44 | 2.21 | 3.92 | 1.66 | 1.54 | 1.07 | 2.88 | 1.08 | 0.96 | 1.17 | 1.02 |
| COc1cc2c(c(OC)c1OC)-c1ccc(OC)c(=O)cc1C(NC(=O)CN(OC)C1OCC(O)C(O)C1O)CC2 [Col17, L-xyloside] | 6.22 | 5.09 | > 10 | > 10 | 8.48 | > 10 | > 10 | > 10 | 9.4 | > 10 | > 10 | > 10 | > 10 | > 10 | 5.17 | 5.61 | 5.93 | 9.72 |
| COc1cc2c(c(OC)c1OC)-c1ccc(OC)c(=O)cc1C(NC(=O)CN(OC)C1OCC(O)C(O)C1O)CC2 [Col20, D-arabinoside] | 4.44 | 2.35 | > 10 | > 10 | 2.41 | 3.74 | > 10 | > 10 | 9.07 | > 10 | 7.85 | 7.74 | > 10 | > 10 | 5.21 | 3.71 | 2.54 | 3.95 |
| COc1cc2c(c(OC)c1OC)-c1ccc(OC)c(=O)cc1C(NC(=O)CN(OC)C1OCC(O)C(O)C1O)CC2 [Col22, L-riboside] | 4.27 | 2.87 | > 10 | > 10 | 2.38 | > 10 | 2.44 | 3.95 | 4.22 | 9.44 | 2.23 | 3.56 | 4.84 | 4.84 | 1.16 | 2 | 4.16 | 4.86 |
| COc1cc2c(c(OC)c1OC)-c1ccc(OC)c(=O)cc1C(NC(=O)CN(OC)C1OCC(O)C(O)C1O)CC2 [Col25, L-arabinoside] | 3.02 | 3.43 | 5.7 | > 10 | 7.4 | > 10 | > 10 | > 10 | 5.02 | 5.26 | 5.14 | 5.53 | 8.51 | 2.51 | 4.41 | 5.78 | 6.8 | 4.46 |
| COc1cc2c(c(OC)c1OC)-c1ccc(OC)c(=O)cc1[C@@H](NC(=O)CN(OC)[C@@H]1O[C@H](CO)[C@H](O)[C@H](O)[C@H]1NC(C)=O)CC2 [Col28, N-acetyl-D-galactosaminoside] | 4.87 | 6.67 | > 10 | 9.57 | > 10 | > 10 | – | > 10 | > 10 | > 10 | 9.95 | > 10 | 5.18 | 7.32 | 9.76 | > 10 | 5.7 | 3.56 |
| COc1cc2c(c(OC)c1OC)-c1ccc(OC)c(=O)cc1[C@@H](NC(=O)CN(OC)[C@@H]1O[C@H](CO)[C@@H](O)[C@H](F)[C@H]1O)CC2 [Col33, 3-fluoro-3-deoxy-D-glucoside] | 6.64 | 6.13 | 5.93 | > 10 | 9.6 | 5.44 | 2.67 | 1.99 | 2.02 | 1.87 | > 10 | > 10 | 1.25 | 1.89 | 4.39 | > 10 | 0.86 | 2.33 |
| COc1cc2c(c(OC)c1OC)-c1ccc(OC)c(=O)cc1C(NC(=O)CN(OC)C1OC(C)C(O)C(O)C1O)CC2 [Col37, L-rhamnoside] | 3.81 | 1.56 | 7.72 | 7.76 | 5.81 | 4.36 | 8.26 | 9.57 | 7.07 | 7.28 | 4.56 | 4.48 | 5.58 | > 10 | 3.72 | 6.7 | 4.79 | 4.68 |
